Source: ChEMBL document CHEMBL1142608, “A ceramide and cerebroside from the starfish asterias amurensis Lütken and their plant-growth promotion activities” (J Nat Prod, 2006)
The source made the active and inactive calls. The calls are words filed in the database; no cut-off is given here.

These molecules were tested on Brassica rapa subsp. oleifera (assay: Growth-promoting activity in Brassica campestris assessed as root growth at 25 degC after 1 week by filter paper assay under 12 hrs/12 hrs light-dark cycle condition).
Format: functional, organism-based

SMILES | Activity
CCCCCCCC/C=C\CCCCCCCC[C@@H](O)[C@@H](O)[C@H](CO)NC(=O)[C@H](O)CCCCCCCCCCCCCC | Active

What follows are molecules tested on Brassica rapa subsp. oleifera (assay: Growth-promoting activity in Brassica campestris assessed as whole body growth at 25 degC after 1 week by filter paper assay under 12 hrs/12 hrs light-dark cycle condition).
Format: functional, organism-based

SMILES | Activity
CCCCCCCC/C=C\CCCCCCC/C=C/[C@@H](O)[C@H](CO[C@@H]1O[C@H](CO)[C@@H](O)[C@H](O)[C@H]1O)NC(=O)[C@H](O)CCCCCCCCCCCC | Active
CCCCCCCC/C=C\CCCCCC/C=C/[C@@H](O)[C@H](CO[C@@H]1O[C@H](CO)[C@@H](O)[C@H](O)[C@H]1O)NC(=O)[C@H](O)CCCCCCCCCCCCCC | Active
CCCCCCCC/C=C\CCCCCCC/C=C/[C@@H](O)[C@H](CO[C@@H]1O[C@H](CO)[C@@H](O)[C@H](O)[C@H]1O)NC(=O)[C@H](O)CCCCCCCCCCCCC | Active
CC(C)CC(=O)C[C@@](C)(O)[C@H]1CC[C@H]2[C@@H]3C[C@H](O[C@@H]4O[C@H](C)C(=O)[C@H](O[C@@H]5O[C@H](C)[C@@H](O[C@@H]6O[C@H](C)[C@H](O)[C@H](O)[C@H]6O[C@@H]6O[C@H](C)[C@H](O)[C@H](O)[C@H]6O)[C@H](O)[C@H]5O[C@@H]5O[C@H](C)[C@@H](O)[C@H](O)[C@H]5O)[C@H]4O)[C@H]4C[C@@H](OS(=O)(=O)O)CC[C@]4(C)C3=CC[C@@]21C | inactive
CC(C)CC(=O)C[C@@](C)(O)[C@H]1CC[C@H]2[C@@H]3C[C@H](O[C@@H]4O[C@H](C)[C@@H](O)[C@H](O[C@@H]5OC[C@@H](O[C@@H]6O[C@H](CO)[C@H](O)[C@H](O)[C@H]6O[C@@H]6O[C@H](C)[C@@H](O)[C@H](O)[C@H]6O)[C@H](O)[C@H]5O[C@H]5O[C@@H](C)[C@H](O)[C@@H](O)[C@@H]5O)[C@H]4O)[C@H]4C[C@@H](OS(=O)(=O)O)CC[C@]4(C)C3=CC[C@@]21C | inactive
